From PubChem BioAssay (NCI)
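Method: 48-hour compound exposure of cells in 96-well plates, five concentrations, linear interpolation of endpoints. Abbreviation: GI50, concentration required for 50% inhibition of growth. TGI denotes the concentration required for complete inhibition of growth.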

What was measured:
Experiment in all cases: NCI anticancer screen, dose series, 48 h
[1] = test system: HS 578T breast
[2] = test system: HT29 colon
[3] = test system: SK-MEL-2 melanoma
[4] = test system: NCI-H460 lung
[5] = test system: U251 CNS
[6] = test system: MDA-MB-435
[7] = test system: A549 NSCLC
[8] = test system: MALME-3M melanoma

COc1ccccc1CNCCCN1C(=O)c2ccc3c4c(ccc(c24)C1=O)C(=O)N(CCCNCCCCNCCCCN)C3=O showed a GI50 [1] of 2.83 µM, a TGI [1] of 14.4 µM and a GI50 [2] of 1.35 µM. It also gave a TGI [2] greater than 28.2 µM, a GI50 [3] of 1.91 µM and a TGI [3] of 4.87 µM. For the same molecule, the GI50 [4] was 2.27 µM, the TGI [4] was 5.8 µM and the GI50 [5] was 1.07 µM. For the same molecule, the TGI [5] was 3.25 µM, the GI50 [6] was 1.62 µM and the TGI [6] was 3.37 µM. It also gave a GI50 [7] of 2.3 µM, a TGI [7] of 7 µM and a GI50 [8] of 0.971 µM. The TGI [8] was 2.48 µM.
For CCCCCCCCCCCC1=NC(C)(C)CN1CCO, the GI50 [1] was 7.51 µM, the TGI [1] was 25.6 µM and the GI50 [2] was 2.12 µM. The TGI [2] was 5.05 µM, the GI50 [3] was 8.15 µM and the TGI [3] was 22.4 µM. The GI50 [4] was 2.88 µM, the TGI [4] was 7.66 µM and the GI50 [5] was 2.8 µM. The TGI [5] was 9.46 µM, the GI50 [6] was 2.51 µM and the TGI [6] was 6.98 µM. The GI50 [7] was 6.93 µM, the TGI [7] was 21.9 µM and the GI50 [8] was 10.2 µM. For the same molecule, the TGI [8] was 29 µM.
With CSC(=S)N/N=C/c1ccccc1 the TGI [1] was greater than 100 µM, the TGI [2] was greater than 100 µM and the TGI [3] was greater than 100 µM. The TGI [4] was greater than 100 µM, the TGI [5] was greater than 100 µM and the TGI [6] was greater than 100 µM. The TGI [7] was greater than 100 µM and the TGI [8] was greater than 100 µM.
Work on CC(C)c1ccc2c(N=Nc3ccc(S(N)(=O)=O)cc3)c(O)[nH]c2c1 yielded a GI50 [1] of 8.07 µM, a TGI [1] greater than 25 µM and a GI50 [2] greater than 25 µM. The TGI [2] was greater than 25 µM, the GI50 [3] was greater than 13.1 µM and the TGI [3] was greater than 21.6 µM. For the same molecule, the GI50 [4] was 5.72 µM, the TGI [4] was greater than 16.4 µM and the GI50 [5] was 5.09 µM. For the same molecule, the TGI [5] was greater than 17.4 µM, the GI50 [6] was greater than 23.2 µM and the TGI [6] was greater than 25 µM. It also gave a GI50 [7] greater than 14.8 µM, a TGI [7] greater than 25 µM and a GI50 [8] of 12.4 µM. For the same molecule, the TGI [8] was greater than 25 µM.
In the case of C=C1C(=O)O[C@H]2[C@H]1CC/C(C=Nc1ccc(C(F)(F)F)cc1N)=C\CC[C@@]1(C)O[C@@H]21, the GI50 [1] is reported as 11.2 µM, the TGI [1] is reported as 40.4 µM and the GI50 [2] is reported as 3.65 µM. It also gave a TGI [2] of 8.6 µM, a GI50 [3] of 11.9 µM and a TGI [3] of 26.5 µM. It also gave a GI50 [4] of 7.07 µM, a TGI [4] of 22.7 µM and a GI50 [5] of 10.9 µM. For the same molecule, the TGI [5] was 23.9 µM, the GI50 [6] was 4.74 µM and the TGI [6] was 17.2 µM. It also gave a GI50 [7] of 17.2 µM, a TGI [7] of 32.7 µM and a GI50 [8] of 11.1 µM. It also gave a TGI [8] of 26.2 µM.
COc1ccc2c(CC(=O)O)cc(=O)oc2c1 gave a TGI [1] greater than 100 µM, a TGI [2] greater than 100 µM and a TGI [4] greater than 100 µM. It also gave a TGI [5] greater than 100 µM, a TGI [6] greater than 100 µM and a TGI [7] greater than 100 µM. It also gave a TGI [8] greater than 100 µM.
Work on COc1ccc2nc3cccc([N+](=O)[O-])c3c(NCCN(CCO)CCO)c2c1 yielded a GI50 [1] of 0.0647 µM, a TGI [1] of 0.272 µM and a GI50 [2] of 0.0117 µM. The TGI [2] was 0.043 µM, the GI50 [3] was 0.0117 µM and the TGI [3] was 0.0224 µM. For the same molecule, the GI50 [4] was 0.0104 µM, the TGI [4] was 0.0985 µM and the GI50 [5] was 0.021 µM. The TGI [5] was 0.136 µM, the GI50 [6] was 0.0175 µM and the TGI [6] was 0.0406 µM. For the same molecule, the GI50 [7] was 0.0257 µM, the TGI [7] was 0.403 µM and the GI50 [8] was 0.0158 µM. It also gave a TGI [8] of 0.0408 µM.
Molecule C#CC[C@@H]1C[C@]2(C)[C@H]3CC[C@@H]4[C@H]5[C@H](C(=C)C)CC[C@]5(C(=O)O)CC[C@@]4(C)[C@]3(C)CC[C@H]2C(C)(C)[C@H]1O has a GI50 [1] of 2.34 µM, a TGI [1] of 7.01 µM and a GI50 [2] of 1.93 µM. The TGI [2] was 3.69 µM, the GI50 [3] was 2.4 µM and the TGI [3] was 6.78 µM. It also gave a GI50 [4] of 1.62 µM, a TGI [4] of 3.18 µM and a GI50 [5] of 1.57 µM. The TGI [5] was 3.03 µM, the GI50 [6] was 3.03 µM and the TGI [6] was 10.8 µM. It also gave a GI50 [7] of 1.31 µM, a TGI [7] of 2.8 µM and a GI50 [8] of 2.53 µM. It also gave a TGI [8] of 5.83 µM.
With CC1(C)CC[C@]2(C(=O)n3ccnc3)CC[C@]3(C)[C@H](C(=O)C=C4[C@@]5(C)C=C(C#N)C(=O)C(C)(C)[C@@H]5CC[C@]43C)[C@@H]2C1 the GI50 [2] was less than 0.0117 µM, the GI50 [3] was less than 0.0336 µM and the GI50 [4] was less than 0.0179 µM. For the same molecule, the TGI [4] was greater than 100 µM, the GI50 [5] was less than 0.01 µM and the TGI [5] was 0.0281 µM. For the same molecule, the GI50 [6] was less than 0.0148 µM, the TGI [6] was 0.0373 µM and the GI50 [7] was less than 0.0214 µM. For the same molecule, the GI50 [8] was less than 0.0111 µM and the TGI [8] was less than 0.0188 µM.
With C=C1C(=O)O[C@H]2[C@H]1CC/C(COC(=O)/C=C\C(=O)NCc1ccc(Cn3c(=O)sn(-c4ccc(OC)cc4)c3=O)cc1)=C\CC[C@@]1(C)O[C@@H]21 the GI50 [1] was 0.913 µM, the TGI [1] was 2.51 µM and the GI50 [2] was 0.395 µM. It also gave a TGI [2] of 1.64 µM, a GI50 [3] of 0.882 µM and a TGI [3] of 1.94 µM. The GI50 [4] was 0.804 µM, the TGI [4] was 1.81 µM and the GI50 [5] was 0.834 µM. It also gave a TGI [5] of 2.19 µM, a GI50 [6] of 0.642 µM and a TGI [6] of 1.32 µM. For the same molecule, the GI50 [7] was 0.938 µM, the TGI [7] was 2.88 µM and the GI50 [8] was 0.806 µM. The TGI [8] was 1.56 µM.
Molecule CCOC(=O)c1ccc2c(c1)[n+](=O)c(C(=O)c1ccc3ccccc3c1)c(C(F)(F)F)n2[O-] has a GI50 [1] of 1.57 µM, a TGI [1] of 3.62 µM and a GI50 [2] of 1.08 µM. It also gave a TGI [2] of 2.27 µM, a GI50 [3] of 1.82 µM and a TGI [3] of 3.4 µM. It also gave a GI50 [4] of 1.69 µM, a TGI [4] of 3.2 µM and a GI50 [5] of 1.5 µM. For the same molecule, the TGI [5] was 2.83 µM, the GI50 [6] was 1.53 µM and the TGI [6] was 2.95 µM. It also gave a GI50 [7] of 1.89 µM, a TGI [7] of 3.62 µM and a GI50 [8] of 1.68 µM. The TGI [8] was 3.46 µM.
CC(C)(C)C(=O)OCOP(=O)(OCOC(=O)C(C)(C)C)C1CCCN(OC(=O)c2ccccc2)C1=O (stereo not given) was tested, and the GI50 [1] was 0.71 µM, the TGI [1] was 38.1 µM and the GI50 [2] was 0.529 µM. It also gave a TGI [2] of 6.28 µM, a GI50 [3] of 1.99 µM and a TGI [3] of 11.4 µM. The GI50 [4] was 1.11 µM, the TGI [4] was 15.3 µM and the GI50 [5] was 0.919 µM. For the same molecule, the TGI [5] was 10.5 µM, the GI50 [6] was 3 µM and the TGI [6] was 17.6 µM. It also gave a GI50 [7] of 2.02 µM, a TGI [7] of 25.2 µM and a GI50 [8] of 0.457 µM. For the same molecule, the TGI [8] was 5.44 µM.
With Fc1ccc(CNc2c3ccccc3nc3ccccc23)cc1 the GI50 [1] was 3.05 µM, the TGI [1] was 10.7 µM and the GI50 [2] was 2.27 µM. It also gave a TGI [2] of 9.54 µM, a GI50 [3] of 2.39 µM and a TGI [3] of 6.01 µM. It also gave a GI50 [4] of 2.3 µM, a TGI [4] of 6.69 µM and a GI50 [5] of 3.02 µM. The TGI [5] was 14.1 µM, the GI50 [6] was 1.89 µM and the TGI [6] was 4.07 µM. It also gave a GI50 [7] of 2.84 µM, a TGI [7] of 10.8 µM and a GI50 [8] of 2.18 µM. The TGI [8] was 5.48 µM.
Work on C[As](C)Sc1ccnc(S[As](C)C)n1 yielded a GI50 [1] of 1.99 µM, a TGI [1] of 17.7 µM and a GI50 [2] of 3.98 µM. The TGI [2] was greater than 39.3 µM, the GI50 [4] was 19.1 µM and the TGI [4] was greater than 58.6 µM. The GI50 [5] was 7.03 µM, the TGI [5] was greater than 100 µM and the GI50 [6] was 1.8 µM. The TGI [6] was greater than 27.9 µM, the GI50 [7] was 8.51 µM and the TGI [7] was greater than 41.7 µM. For the same molecule, the GI50 [8] was 1.66 µM and the TGI [8] was 11.3 µM.
CCOCCc1c(O)nc(SC)[nH]c1=O gave a GI50 [1] greater than 100 µM, a TGI [1] greater than 100 µM and a GI50 [2] greater than 100 µM. For the same molecule, the TGI [2] was greater than 100 µM, the GI50 [3] was greater than 100 µM and the TGI [3] was greater than 100 µM. For the same molecule, the GI50 [4] was greater than 100 µM, the TGI [4] was greater than 100 µM and the GI50 [5] was greater than 100 µM. For the same molecule, the TGI [5] was greater than 100 µM, the GI50 [6] was greater than 100 µM and the TGI [6] was greater than 100 µM. It also gave a GI50 [7] greater than 100 µM, a TGI [7] greater than 100 µM and a GI50 [8] greater than 100 µM. For the same molecule, the TGI [8] was greater than 100 µM.
For COc1cc(-c2cc(/C=C/C(=O)c3ccc4c(c3)OCO4)[nH]n2)cc(OC)c1OC, the GI50 [1] was 3.71 µM, the TGI [1] was 78.7 µM and the GI50 [2] was 2.18 µM. It also gave a TGI [2] of 4.55 µM, a GI50 [3] of 10.3 µM and a TGI [3] of 28.9 µM. It also gave a GI50 [4] of 2.12 µM, a TGI [4] of 5.1 µM and a GI50 [5] of 2.01 µM. It also gave a TGI [5] of 5.45 µM, a GI50 [7] of 4.32 µM and a TGI [7] greater than 100 µM. It also gave a GI50 [8] of 4.42 µM and a TGI [8] of 20.8 µM.
